# Values joined by “and” are separate entries in the source; they are usually repeats but may differ in a detail not shown here. Equal values may be shown once. “Also recorded” adds a separate entry of the source.
# How the values were obtained:
# [1] = ORAC(fl) assay (fluorescein, method of Ou et al.); type: biochemical; details: mixed at different ratios with quercetin; standard acetone:water solution
# Experimental: Prior Art Method of Measuring Antioxidant Activity for Comparison. For the ORAC(fl) assay, the method of Ou et al. (Ou , B., Hampsch-Woodill, M. and Prior, R.L., J. Agric. Food Chem. 2001, 49, 4619-4626) was followed. Differences from the Ou procedure as published included the speed of the orbital shaker (Ou, 400 rpm; herein, 280 rpm), and the centrifuge speed (Ou, 14,000 rpm, 15 min; herein, 3200 rpm, 15 min and the length of the assay (Ou, 30 min; herein, 100 min). Fluorescein, sodium salt, was obtained from Aldrich (Milwaukee, WI). For the Ou method, a standard amount of fluorescein is added to an antioxidant product being tested, and the beginning level of fluorescence is measured. A free radical initiator is added, and the time and degree of disappearance of fluorescence are measured. Trolox®, 6-Hydroxy-2,5,7,8-tetramethylchroman-2-carboxylic Acid, is a cell-permeable, water-soluble derivative of vitamin E with potent antioxidant properties. Trolox® prevents peroxynitrite-mediated oxidative stress and apoptosis in rat thymocytes and is a synthetic antioxidant that is consistent from lot-to-lot and is used as the standard and run for comparison with each sample. A blank (control) used in calculations of the ORAC(o) value for each samples may be included in each run. Fluorescence vs. time is plotted. The blank (control) is subtracted from every curve. […]
# [2] = 37 °C at neutral pH; cited from earlier work
# [3] = ORAC(o) assay: oxygen radical absorbance capacity by dissolved oxygen; type: biochemical; design: unit not given here; details: quercetin sample at 10µg/mL
# Experimental: Method of Measuring Antioxidant Activity. In operation, the ORAC(o) assay of the present invention was used to evaluate antioxidant compositions, combinations and the like of solutions against a target molecule (linoleic acid) with oxygen present at equilibrium with the air. A free radical initiator is added and the time it takes for oxygen to disappear is measured, yielding the rate of disappearance. Trolox® is used as the standard, and a blank is run as a control. Amount of dissolved oxygen vs. time is plotted allowing direct comparison of net areas under the curve. A detailed method is as follows: Buffers (K2HPO4 (F.W. 174.2), NaH2PO4 (FW 120.0)) were obtained from Sigma (St. Louis, MO). […] HPLC grade acetone was obtained from Fisher (Hampton, NH). A YSI […] biological oxygen meter was obtained from YSI (Yellow Springs, Ohio) and used according to the manufacturer's specifications. ORAC(o) Method. The following stock solutions were used. […] Weigh 65.33g into 500mL of volumetric flask, and add dH20 to the mark. Concentration is 750 mM. Store 750 mM K2HPO4 stock solution in a refrigerator (2 to 8°C) equipped with a calibrated thermometer. Target temperature is 4°C. 750mM NaH2PO4 (FW 120.0); Weigh 45.00 g into 500 mL of volumetric flask, and add dH20 to the mark. […] Keep covered at room temperature until ready to use. […]
smiles,measurement,setting,value
Cc1c(C)c2c(c(C)c1O)CC[C@@](C)(CCC[C@H](C)CCC[C@H](C)CCCC(C)C)O2 [α-tocopherol],contribution of α-tocopherol to AO activity,[1],no contribution to AO activity; also recorded: no statistically significant activity
"CC(C)(N=NC(C)(C)C(=N)N)C(=N)N.Cl.Cl [AAPH, 2,2' azobis (2-amidinopropane) dihydrochloride]",half life,[2],about 175 hours
O=c1c(O)c(-c2ccc(O)c(O)c2)oc2cc(O)cc(O)c12 [quercetin],Area Under Curve (AUC),"[3]; each day an average of 3 runs, 5 day precision trial",202.7 and 212.9 and 187 and 202.9 and 213.1
same,Area under curve,[3]; single runs of single day precision trial,207.4 and 198.2 and 205 and 201.6 and 202.1
